In patent US20140094462A1, “SONIC HEDGEHOG MODULATORS” (priority 2009, published 2014):
Where two headings read alike, the source gives them in different places.

How the values were obtained:
[1] = rcm bond, 12-membered ring
[2] = rcm bond, toluene
ShhN protein = target: T1, ShhN protein (Homo sapiens, UniProt Q15465); test: Surface Plasmon Resonance (SPR) protein binding assay on immobilized ShhN; conditions: SPR, Biacore T100, ShhN immobilized on CM4 chip, 25° C., compound 0.78 μM-25 μM; read-out: KD
T1 construct: auto-cleavage of full length Shh into an active 20 kD N-terminal fragment (ShhN); purchased R&D Systems
In short: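 Binding to immobilized ShhN measured on a Biacore T100 at 25°C. Signals referenced against underivatized control surfaces, with zero-concentration blank cycles included. Solvent correction applied.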

Gli1 = test: Primary keratinocyte cell culture, reduction in Gli mRNA; assay type: cell-based; conditions: primary human keratinocytes
Procedure: To study the potency of the compounds of the invention in cells, select compounds of the invention were conducted with keratinocytes and the reduction in Gli mRNA was measured. Culturing of primary human keratinocytes was previously described (Nguyen, B. C., et al., Genes & Dev. 20:1028-1042 (2006)). The full thickness skin model, EpiDermFT System (MatTek, Ashland), consisted of normal, human-derived epidermal keratinocytes and normal, human-derived dermal fibroblasts which have been cultured to form a multilayered, highly differentiated model of the human dermis and epidermis. […] Gene expression is compared by quantifying mRNA levels by real time RT-PCR. For this, total RNA preparations […] are used in a reverse transcriptase reaction with a mix of oligonucleotide dT and random hexamer primers, followed by real time PCR with gene-specific primers (Gli1: Qiagen Quantitect PrimerAssay QT00060501; Gli2: Qiagen Quantitect PrimerAssay QT00018648), using an […] real time detection system (Bio-Rad) according to the manufacturer's recommendation, with SYBR Green (Bio-Rad) for detection.

C3H10T1/2 = test: Induction of osteogenic differentiation (modulation of osteoblast differentiation); conditions: Mus musculus, C3H 10T1/2, read-out: IC50 (nM) C3H10T1/2
Excerpt: Using assays previously described in Dwyer et al., J. Biol. Chem. 282, (2007), 8959-68 and Nakamura et al., Biochm. […] Res. Comm., 237 (1997) 465-9, select compounds of the invention were screened for their ability to modulate osteoblast differentiation.

T1 sequence (Q15465 24-197 limits assumed, species assumed): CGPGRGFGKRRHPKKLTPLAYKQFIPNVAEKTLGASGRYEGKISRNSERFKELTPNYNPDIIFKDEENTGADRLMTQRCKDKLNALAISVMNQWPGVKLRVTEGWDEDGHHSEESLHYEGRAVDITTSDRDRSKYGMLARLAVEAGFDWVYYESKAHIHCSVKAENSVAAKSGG

CC(C)(C)OC(=O)C[C@@H]1C/C=C/CCC(=O)O[C@H](c2ccccc2)CNC1=O
ring closure, isolated yield ([1]; from C=CCCC(=O)O[C@@H](CNC(=O)[C@@H](CC=C)CC(=O)OC(C)(C)C)c1ccccc1, Grubbs II (10 mol%), toluene, 10.0 mM, 65.0 °C, 7.0 h): 73%
ring closure, yield of all isomers ([2]; from C=CCCC(=O)O[C@@H](CNC(=O)[C@@H](CC=C)CC(=O)OC(C)(C)C)c1ccccc1, Grubbs 2nd Generation catalyst, 10.0 mM, 65.0 °C, 7.0 h): 73%

CC(C)(C)OC(=O)N[C@@H]1C/C=C/CCC(=O)N[C@H](c2ccc(F)cc2)COC1=O
ring closure, isolated yield ([1]; from C=CCCC(=O)N[C@@H](COC(=O)[C@@H](CC=C)NC(=O)OC(C)(C)C)c1ccc(F)cc1, Grubbs II (10 mol%), DCM, 9.9 mM): 85%

CCO[Si](OCC)(OCC)C1=CCC(C)(C)C(=O)OC[C@@H](c2ccccc2)NC(=O)CC1
ring closure, isolated yield ([1]; from C=CCC(C)(C)C(=O)OC[C@H](NC(=O)CCC(=C)[Si](OCC)(OCC)OCC)c1ccccc1, general RCM procedure (catalyst not printed here), toluene): 6%
ring closure, yield of all isomers ([2]; from C=CCC(C)(C)C(=O)OC[C@H](NC(=O)CCC(=C)[Si](OCC)(OCC)OCC)c1ccccc1): 6%

C[C@@H]1C/C=C/CCC(=O)N[C@H](c2ccccc2)CC(=O)O1
ring closure, isolated yield ([1]; from C=CCCC(=O)N[C@H](CC(=O)O[C@@H](C)CC=C)c1ccccc1, Grubbs II (10 mol%), toluene, 10.0 mM): 79%

C[C@@H]1C/C=C/CCNC(=O)[C@H](c2ccccc2)COC1=O
ring closure, isolated yield ([1]; from C=CCCNC(=O)[C@@H](COC(=O)[C@H](C)CC=C)c1ccccc1, Grubbs II (10 mol%), toluene, 10.0 mM, 2 steps): 63%

C[C@H]1C/C=C/CCCN[C@H](c2ccccc2)COC1=O
ring closure, isolated yield ([1]; from C=CCCCN[C@@H](COC(=O)C(C)CC=C)c1ccccc1, general RCM procedure (catalyst not printed here), toluene, 3 steps): 41%
ring closure, yield of all isomers ([2]; from C=CCCCN[C@@H](COC(=O)[C@@H](C)CC=C)c1ccccc1, 3 steps): 41%

C[C@@H]1C/C=C/CCC(=O)N[C@H](c2ccccc2)COC1=O [Example C, (3R,11R,E)-11-methyl-3-phenyl-1-oxa-4-azacyclododec-8-ene-5,12-dione]
ring closure, yield of all isomers ([2]; from C=CCCC(=O)N[C@@H](COC(=O)[C@H](C)CC=C)c1ccccc1, Grubbs II, 20.0 mM, 25.0 °C, 12.0 h): 37%
Kd (ShhN protein): < 100 nM
IC50 (Gli1): < 100 nM
IC50 (C3H10T1/2): 100 to 1000 nM

N[C@@H]1C/C=C/C[C@@H](CC(=O)NCc2ccc(Cl)cc2)C(=O)NC[C@@H](c2ccccc2)OC1=O [Example CV, 2-((2R,6S,11R,E)-11-amino-5,12-dioxo-2-phenyl-1-oxa-4-azacyclododec-8-en-6-yl)-N-(4-chlorobenzyl)acetamide]
Kd (ShhN protein): < 100 nM
IC50 (Gli1): < 100 nM
IC50 (C3H10T1/2): 100 to 1000 nM

C[C@H]1[C@@H](c2ccccc2)OC(=O)CC/C=C/C[C@@H](CC(=O)NCc2ccc(Cl)cc2)C(=O)N1C [Example CZ, N-(4-chlorobenzyl)-2-((2R,3S,6S,E)-3,4-dimethyl-5,12-dioxo-2-phenyl-1-oxa-4-azacyclododec-8-en-6-yl)acetamide]
Kd (ShhN protein): < 100 nM
IC50 (Gli1): 100 to 1000 nM
IC50 (C3H10T1/2): 100 to 1000 nM

O=C(C[C@@H]1C/C=C/CCC(=O)N[C@@H](c2ccccc2)COC1=O)NCc1ccc(Cl)cc1 [Example DA, N-(4-chlorobenzyl)-2-((3S,11S,E)-5,12-dioxo-3-phenyl-1-oxa-4-azacyclododec-8-en-11-yl)acetamide]
Kd (ShhN protein): < 100 nM
IC50 (Gli1): < 100 nM
IC50 (C3H10T1/2): 100 to 1000 nM

CC(=O)N[C@H]1C/C=C/C[C@@H](CC(=O)NCc2ccc(Cl)cc2)C(=O)NC[C@@H](c2ccccc2)OC1=O [Example DJ, 2-((2R,6S,11S,E)-11-acetamido-5,12-dioxo-2-phenyl-1-oxa-4-azacyclododec-8-en-6-yl)-N-(4-chlorobenzyl)acetamide]
Kd (ShhN protein): < 100 nM
IC50 (Gli1): > 100000 nM
IC50 (C3H10T1/2): 100 to 1000 nM

O=C1CC/C=C/C[C@@H](CC(=O)N2CCOCC2)C(=O)NC[C@@H](c2ccccc2)O1 [Example DK, (2R,6S,E)-6-(2-morpholino-2-oxoethyl)-2-phenyl-1-oxa-4-azacyclododec-8-ene-5,12-dione]
Kd (ShhN protein): < 100 nM
IC50 (Gli1): 100 to 1000 nM
IC50 (C3H10T1/2): 1000 to 100000 nM

CC(=O)N[C@H]1C/C=C/C[C@@H](CC(=O)NCc2ccc(Cl)cc2)C(=O)N(C)[C@@H](C)[C@@H](c2ccccc2)OC1=O [Example DM, 2-((2R,3S,6S,11S,E)-11-acetamido-3,4-dimethyl-5,12-dioxo-2-phenyl-1-oxa-4-azacyclododec-8-en-6-yl)-N-(4-chlorobenzyl)acetamide]
Kd (ShhN protein): < 100 nM
IC50 (Gli1): 100 to 1000 nM
IC50 (C3H10T1/2): 1000 to 100000 nM

CN1CCC(CNC(=O)C[C@@H]2C/C=C/CCC(=O)O[C@H](c3ccccc3)CNC2=O)CC1 [Example DN, 2-((2R,6S,E)-5,12-dioxo-2-phenyl-1-oxa-4-azacyclododec-8-en-6-yl)-N-((1-methylpiperidin-4-yl)methyl)acetamide]
Kd (ShhN protein): < 100 nM
IC50 (Gli1): 100 to 1000 nM
IC50 (C3H10T1/2): 1000 to 100000 nM

O=C(C[C@@H]1C[C@H](O)[C@@H](O)CCC(=O)N[C@H](c2ccccc2)COC1=O)NCc1ccc(Cl)cc1 [Example E, N-(4-chlorobenzyl)-2-((3R,8S,9S,11S)-8,9-dihydroxy-5,12-dioxo-3-phenyl-1-oxa-4-azacyclododecan-11-yl)acetamide]
Kd (ShhN protein): < 100 nM
IC50 (Gli1): < 100 nM
IC50 (C3H10T1/2): 1000 to 100000 nM

CC1(C)O[C@H]2CCC(=O)O[C@H](c3ccccc3)CNC(=O)[C@H](CC(=O)NCc3ccc(Cl)cc3)C[C@@H]2O1 [Example I, N-(4-chlorobenzyl)-2-((3aS,8R,12S,13aS)-2,2-dimethyl-6,11-dioxo-8-phenyldecahydro-3aH-[1,3]dioxolo[4,5-h][1,4]oxaazacyclododecin-12-yl)acetamide]
Kd (ShhN protein): < 100 nM
IC50 (Gli1): < 100 nM
IC50 (C3H10T1/2): 1000 to 100000 nM
